This is an account of results in US8580825B2, “Oxadiazole inhibitors of leukotriene production” (Boehringer Ingelheim International GmbH, priority 2010, dated 2013).

Assay [1] concerns biomarkers for myocardial infarction risk. The settings on record: clinical trial; cited from earlier work.
Assay [2] addresses T1, recombinant human FLAP protein (Homo sapiens, UniProt P20292).
T1 construct: made in house; host or cells: Sf9 insect cells (100,000xg membrane fraction used)
T1 sequence (P20292 1-161): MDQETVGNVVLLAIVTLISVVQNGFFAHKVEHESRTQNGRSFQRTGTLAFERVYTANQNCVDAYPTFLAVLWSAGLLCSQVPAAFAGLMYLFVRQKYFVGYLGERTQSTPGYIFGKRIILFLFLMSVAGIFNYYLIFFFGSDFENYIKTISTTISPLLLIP
As to the kind of experiment: FLAP binding assay (Scintillation Proximity Assay, displacement of [125I]L-691,831). The settings on record: read-out: FLAP SPA IC50. In short, it runs like this: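 Scintillation proximity displacement of [125I]L-691,831 (0.08 nM) from membranes of sf9 cells expressing recombinant human FLAP (5 μg/well) on WGA SPA beads, pH 7.5 Tris buffer. Plates shaken 2 h before counting. Non-specific binding defined with 10 μM unlabelled L-691,831.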
Background: Scintillation proximity formats need no separation of bound from free tracer.

Assay [3] has as its system synthesis of LTB4 in human whole blood. The experiment in a line: human whole blood LTB4 production inhibition assay. The class given is cell-based. The settings on record: calcimycin stimulated, read-out: hWB LTB4 IC50. The method, boiled down:
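Heparinized human whole blood was preincubated with compound for 15 min at 37° C, then stimulated with calcimycin (20 μM final, in PBS pH 7.4) for a further 30 min at 37° C. Plasma LTB4 was quantified by antibody-based homogeneous time-resolved fluorescence.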

In assay [4] the test system is apoE/LDL-R double knockout mice. The settings on record: oral dosing, high-fat diet from 2 months of age to 6 months; cited from earlier work.
In another assay the test system is ApoE−/−xCD4dnTβRII mice. The settings on record: infusion, treated for four weeks; cited from earlier work.

A word on the IC50: it is the concentration that inhibits the measured activity by half.

Molecules are shown by their SMILES.

In the case of `O=C(O)[C@@H](c1ccc(OCc2ccc3ccccc3n2)cc1)C1CCCC1` [DG-031], the “effect on biomarkers for myocardial infarction risk” value in assay [1] is on record as “dose-dependent suppression of several biomarkers”.
For the compound `COC1CCN(C(=O)Cn2cc(-c3nc([C@@](C)(c4ccc(-c5cnc(N)nc5)nc4)C(C)C)no3)cn2)C1` (stereo partly drawn) [Example 150, 2-[4-(3-{(R)-1-[6-(2-Amino-pyrimidin-5-yl)-pyridin-3-yl]-1,2-dimethyl-propyl}-1,2,4-oxadiazol-5-yl)-pyrazol-1-yl]-1-(3-methoxy-pyrrolidin-1-yl)-ethanone], the figures for the IC50 in assay [2] and in assay [3] were 42 nM and 180 nM, respectively.
On the same counts, the results for `CC(C)[C@](C)(c1ccc(-c2cnc(N)nc2)nc1)c1noc(-c2cnn(CC(=O)N3CCOCC3)c2)n1` [Example 151, 2-[4-(3-{(R)-1-[6-(2-Amino-pyrimidin-5-yl)-pyridin-3-yl]-1,2-dimethyl-propyl}-1,2,4-oxadiazol-5-yl)-pyrazol-1-yl]-1-morpholin-4-yl-ethanone] are 32 nM and 190 nM.
`COCCNC(=O)Cn1cc(-c2nc([C@@](C)(c3ccc(-c4cnc(N)nc4)nc3)C(C)C)no2)cn1` [Example 152, 2-[4-(3-{(R)-1-[6-(2-Amino-pyrimidin-5-yl)-pyridin-3-yl]-1,2-dimethyl-propyl}-1,2,4-oxadiazol-5-yl)-pyrazol-1-yl]-N-(2-methoxy-ethyl)-acetamide]: the 50% inhibitory concentration (IC50) was 24 nM in assay [2] and 190 nM in assay [3].
On to `COCCN(C)C(=O)Cn1cc(-c2nc([C@@](C)(c3ccc(-c4cnc(N)nc4)nc3)C(C)C)no2)cn1` [Example 153, 2-[4-(3-{(R)-1-[6-(2-Amino-pyrimidin-5-yl)-pyridin-3-yl]-1,2-dimethyl-propyl}-1,2,4-oxadiazol-5-yl)-pyrazol-1-yl]-N-(2-methoxy-ethyl)-N-methyl-acetamide], for which the IC50 in assay [2] came to 16 nM; in assay [3], 150 nM.
In the case of `CC(C)[C@](C)(c1ccc(-c2cnc(N)nc2)nc1)c1noc(-c2cnn(CC(=O)NC3CCOCC3)c2)n1` [Example 154, 2-[4-(3-{(R)-1-[6-(2-Amino-pyrimidin-5-yl)-pyridin-3-yl]-1,2-dimethyl-propyl}-1,2,4-oxadiazol-5-yl)-pyrazol-1-yl]-N-(tetrahydro-pyran-4-yl)-acetamide], the values for the IC50 in assay [2] and in assay [3] were 21 nM and 550 nM, respectively.
The like results for `COC1CCN(C(=O)Cn2cc(-c3nc([C@@](C)(c4ccc(-c5cnc(N)nc5)nc4)C(C)C)no3)cn2)CC1` [Example 155, 2-[4-(3-{(R)-1-[6-(2-Amino-pyrimidin-5-yl)-pyridin-3-yl]-1,2-dimethyl-propyl}-1,2,4-oxadiazol-5-yl)-pyrazol-1-yl]-1-(4-methoxy-piperidin-1-yl)-ethanone] were, in that order, 19 nM and 110 nM.
Regarding `CNc1cnc(-c2ccc([C@](C)(c3noc(-c4cnn(CC(C)(C)O)c4)n3)C3CC3)cn2)cn1` [Example 156, 1-[4-(3-{(R)-1-Cyclopropyl-1-[6-(5-methylamino-pyrazin-2-yl)-pyridin-3-yl]-ethyl}-[1,2,4]oxadiazol-5-yl)-pyrazol-1-yl]-2-methyl-propan-2-ol], the values for the IC50 in assay [2] and in assay [3] were 27 nM and 54 nM, respectively.
As to `CNc1cnc(-c2ccc([C@@](C)(c3noc(-c4cnn(CC(C)(C)O)c4)n3)C3CC3)cn2)cn1` [Example 157, 1-[4-(3-{(S)-1-Cyclopropyl-1-[6-(5-methylamino-pyrazin-2-yl)-pyridin-3-yl]-ethyl}-[1,2,4]oxadiazol-5-yl)-pyrazol-1-yl]-2-methyl-propan-2-ol], the IC50 worked out at 420 nM in assay [2] and 969 nM in assay [3].
On the same counts, the results for `CC(C)(O)Cn1cc(-c2nc(C(C)(c3ccc(-c4cnc(N)c(F)c4)nc3)C3CC3)no2)cn1` (stereo not shown) [Example 158, 1-(4-{3-[1-(6′-Amino-5′-fluoro-[2,3′]bipyridinyl-5-yl)-1-cyclopropyl-ethyl]-[1,2,4]oxadiazol-5-yl}-pyrazol-1-yl)-2-methyl-propan-2-ol] are 230 nM and 502 nM.
Regarding `CC(C)(O)Cn1cc(-c2nc(C(C)(c3ccc(-c4cnc5[nH]ccc5n4)nc3)C3CC3)no2)cn1` (stereo not shown) [Example 159, 1-[4-(3-{1-Cyclopropyl-1-[6-(5H-pyrrolo[2,3-b]pyrazin-2-yl)-pyridin-3-yl]-ethyl}-[1,2,4]oxadiazol-5-yl)-pyrazol-1-yl]-2-methyl-propan-2-ol], the IC50 in assay [2] is 27 nM; in assay [3] it was 167 nM.
The like results for `C[C@@](c1ccc(-c2cnc(N)cn2)nc1)(c1noc(-c2cnn(C3COC3)c2)n1)C1CC1` [Example 160, 5-(5-{(R)-1-Cyclopropyl-1[5-(1-oxetan-3-yl-1H-pyrazol-4-yl)-[1,2,4]oxadiazol-3-yl]-ethyl}-pyridin-2-yl)-pyrazin-2-ylamine] were, in that order, 15 nM and 23 nM.
On to `C[C@@](c1ccc(-c2cnc(N)cn2)nc1)(c1noc(-c2cnn(CC#N)c2)n1)C1CC1` [Example 161, [4-(3-{(R)-1-[6-(5-Amino-pyrazin-2-yl)-pyridin-3-yl]-1-cyclopropyl-ethyl}-[1,2,4]oxadiazol-5-yl)-pyrazol-1-yl]-acetonitrile], for which the IC50 in assay [2] amounted to 21 nM; in assay [3], 32 nM.
On the same counts, the results for `CC(C)(O)Cn1cc(-c2nc([C@@](C)(c3ccc(-c4cnc(N)nc4C#N)nc3)C3CC3)no2)cn1` [Example 163, 2-Amino-5-[5-((R)-1-cyclopropyl-1-{5-[1-(2-hydroxy-2-methyl-propyl)-1H-pyrazol-4-yl]-[1,2,4]oxadiazol-3-yl}-ethyl)-pyridin-2-yl]-pyrimidine-4-carbonitrile] are 290 nM and 348 nM.
On the same counts, the results for `CC(C)(O)Cn1cc(-c2nc([C@@](C)(c3ccc(-c4cnc(N)c(C#N)n4)nc3)C3CC3)no2)cn1` [Example 164, 3-Amino-6-[5-((R)-1-cyclopropyl-1-{5-[1-(2-hydroxy-2-methyl-propyl)-1H-pyrazol-4-yl]-[1,2,4]oxadiazol-3-yl}-ethyl)-pyridin-2-yl]-pyrazine-2-carbonitrile] are 40 nM and 97 nM.
Turning to `CNc1ncc(-c2ccc([C@](C)(c3noc(-c4cnn(CC(C)(C)O)c4)n3)C3CC3)cn2)cn1` [Example 165, 1-[4-(3-{(R)-1-Cyclopropyl-1-[6-(2-methylamino-pyrimidin-5-yl)-pyridin-3-yl]-ethyl}-[1,2,4]oxadiazol-5-yl)-pyrazol-1-yl]-2-methyl-propan-2-ol], the IC50 is 56 nM in assay [2] and 82 nM in assay [3].
In the case of `Cc1nc(N)cnc1-c1ccc([C@](C)(c2noc(-c3cnn(CC(C)(C)O)c3)n2)C2CC2)cn1` [Example 166, 1-[4-(3-{(R)-1-[6-(5-Amino-3-methyl-pyrazin-2-yl)-pyridin-3-yl]-1-cyclopropyl-ethyl}-[1,2,4]oxadiazol-5-yl)-pyrazol-1-yl]-2-methyl-propan-2-ol], the values for the concentration for half-maximal inhibition (IC50) in assay [2] and in assay [3] were 41 nM and 57 nM, respectively.
Take `CC(C)(O)Cn1cc(-c2nc([C@@](C)(c3ccc(-c4cnc(N)c(F)c4)nc3)C3CC3)no2)cn1` [Example 177, 1-(4-{3-[(R)-1-(6′-Amino-5′-fluoro-[2,3′]bipyridinyl-5-yl)-1-cyclopropyl-ethyl]-[1,2,4]oxadiazol-5-yl}-pyrazol-1-yl)-2-methyl-propan-2-ol]: the 50% inhibitory concentration (IC50) in assay [2] was determined as 65 nM; in assay [3] it was 256 nM.
On to `CC(C)(O)Cn1cc(-c2nc([C@](C)(c3ccc(-c4cnc(N)c(F)c4)nc3)C3CC3)no2)cn1` [Example 178, 1-(4-{3-[(S)-1-(6′-Amino-5′-fluoro-[2,3′]bipyridinyl-5-yl)-1-cyclopropyl-ethyl]-[1,2,4]oxadiazol-5-yl}-pyrazol-1-yl)-2-methyl-propan-2-ol], for which the IC50 in assay [2] amounted to 2000 nM; in assay [3] it was 2350 nM.
Consider `Cc1nc(N)ncc1-c1ccc(C(C)(c2noc(-c3cnn(CC(C)(C)O)c3)n2)C2CC2)cn1` (stereo not shown) [Example 179, 1-[4-(3-{1-[6-(2-Amino-4-methyl-pyrimidin-5-yl)-pyridin-3-yl]-1-cyclopropyl-ethyl}-[1,2,4]oxadiazol-5-yl)-pyrazol-1-yl]-2-methyl-propan-2-ol], for which the IC50 was determined as 450 nM in assay [2] and 483 nM in assay [3].
For `Cc1nc(N)ncc1-c1ccc(C(C)(c2noc(-c3cnn(C)c3)n2)C2CC2)cn1` (stereo not shown) [Example 180, 5-(5-{1-Cyclopropyl-1-[5-(1-methyl-1H-pyrazol-4-yl)-[1,2,4]oxadiazol-3-yl]-ethyl}-pyridin-2-yl)-4-methyl-pyrimidin-2-ylamine], the IC50 in assay [2] was found to be 190 nM; in assay [3], 309 nM.
For the compound `Cn1cc(-c2nc(C(C)(c3ccc(-c4cnc(N)cn4)nc3)C3CC3)no2)cn1` (stereo not shown) [Example 181, 5-(5-{1-Cyclopropyl-1-[5-(1-methyl-1H-pyrazol-4-yl)-[1,2,4]oxadiazol-3-yl]-ethyl}-pyridin-2-yl)-pyrazin-2-ylamine], the IC50 in assay [2] came out at 34 nM; in assay [3], 65 nM.
On to `CC(C)c1ccc2c(c1)c(SC(C)(C)C)c(CC(C)(C)C(=O)O)n2Cc1ccc(Cl)cc1` [MK-886], for which, in assay [4], the “decrease in plaque coverage in the aorta” value is recorded as 56% and the “decrease in plaque coverage in the aortic root” value is 43%. In addition, the “decrease in plaque area in the aortic root” value with ApoE−/−xCD4dnTβRII mice is reported as approximately 40%.
